# Source: patent US10538498B2, “1,3,4-oxadiazole sulfonamide derivative compounds as histone deacetylase 6 inhibitor, and the pharmaceutical composition comprising the same” (Chong Kun Dang Pharmaceutical Corp., priority 2015, dated 2020)
# Key:
# human recombinant HDAC1 = biological target: T1, human recombinant HDAC1 (Homo sapiens, UniProt Q13547); assay: HDAC1 enzyme activity inhibition assay (HDAC Fluorimetric Drug Discovery Kit); assay type: biochemical; settings: 0.3 μg enzyme, 10 μM substrate, 30° C., 60 minutes
# T1 construct: purchased Enzo Life Science BML-SE456
# Procedure: In order to examine the HDAC6 selectivity of the compounds of formula I of the present invention by HDAC1 and HDAC6 enzymatic activity inhibition assays, an experiment was performed using a conventional substance as a control.
# HDAC enzyme activity was measured using a HDAC Fluorimetric Drug Discovery Kit (BML-AK511, 516, Enzo Life Science). For the HDAC1 enzyme activity test, human recombinant HDAC1 (BML-SE456) was used as an enzyme source, and Fluor de Lys®-“SIRT1 (BNL-KI177) was used as a substrate. A 5-fold dilution of the compound was seeded into a 96-well plate, and then 0.3 μg of the enzyme and 10 μM of the substrate were added to each well of the plate and allowed to react at 30° C. for 60 minutes. Then, Fluor de Lys®-Developer II (BML-KI176) was added thereto and allowed to react for 30 minutes, after which the fluorescence value (Ex 360, Em 460) was measured using a multi-plate reader (Flexstation 3, Molecular Device). The HDAC6 enzyme was tested using human recombinant HDAC6 (382180) (Calbiochem) according to the same protocol as the HDAC1 enzyme activity test method. Based on the resulting values, each IC50 value was calculated using GraphPad Prism4.0 program.
# human recombinant HDAC6 = biological target: T2, human recombinant HDAC6 (Homo sapiens, UniProt Q9UBN7); assay: HDAC6 enzyme activity inhibition assay (HDAC Fluorimetric Drug Discovery Kit); assay type: biochemical; settings: for HDAC6 selectivity (fold): HDAC1 vs HDAC6; for IC50: same protocol as the HDAC1 enzyme activity test
# T2 construct: purchased Calbiochem 382180
# T2 sequence (Q9UBN7 1-1215): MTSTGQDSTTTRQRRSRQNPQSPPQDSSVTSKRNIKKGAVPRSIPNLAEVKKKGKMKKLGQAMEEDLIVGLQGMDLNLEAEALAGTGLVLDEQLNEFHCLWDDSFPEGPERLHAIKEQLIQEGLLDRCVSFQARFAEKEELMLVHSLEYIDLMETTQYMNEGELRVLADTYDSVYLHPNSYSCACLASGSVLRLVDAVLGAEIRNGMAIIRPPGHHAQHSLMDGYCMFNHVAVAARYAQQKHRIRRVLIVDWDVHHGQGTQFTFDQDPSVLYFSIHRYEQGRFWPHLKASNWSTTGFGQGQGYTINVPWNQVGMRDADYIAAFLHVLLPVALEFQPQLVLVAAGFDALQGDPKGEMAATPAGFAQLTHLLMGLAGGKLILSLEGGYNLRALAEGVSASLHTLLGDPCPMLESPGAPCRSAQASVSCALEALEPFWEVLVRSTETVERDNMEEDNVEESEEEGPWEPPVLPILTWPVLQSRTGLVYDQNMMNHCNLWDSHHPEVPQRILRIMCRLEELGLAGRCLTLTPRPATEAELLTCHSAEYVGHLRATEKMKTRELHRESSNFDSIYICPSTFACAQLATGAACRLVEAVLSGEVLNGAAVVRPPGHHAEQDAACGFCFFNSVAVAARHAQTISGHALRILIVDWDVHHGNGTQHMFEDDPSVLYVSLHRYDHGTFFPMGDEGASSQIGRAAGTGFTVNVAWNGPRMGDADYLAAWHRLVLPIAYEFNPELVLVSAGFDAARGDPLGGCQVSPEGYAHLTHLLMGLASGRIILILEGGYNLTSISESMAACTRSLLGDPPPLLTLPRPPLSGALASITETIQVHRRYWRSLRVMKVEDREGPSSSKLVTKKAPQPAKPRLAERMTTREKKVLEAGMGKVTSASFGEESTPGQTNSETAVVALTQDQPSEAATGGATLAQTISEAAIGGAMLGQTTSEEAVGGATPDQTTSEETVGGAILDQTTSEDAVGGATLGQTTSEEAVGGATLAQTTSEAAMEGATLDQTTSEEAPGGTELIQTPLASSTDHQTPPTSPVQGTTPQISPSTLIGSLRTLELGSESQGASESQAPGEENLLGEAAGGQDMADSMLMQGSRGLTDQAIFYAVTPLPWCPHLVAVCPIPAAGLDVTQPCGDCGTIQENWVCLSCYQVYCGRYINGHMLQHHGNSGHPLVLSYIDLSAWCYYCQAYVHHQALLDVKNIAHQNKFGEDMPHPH
# Outline: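 Recombinant enzyme (0.3 μg) was incubated with 5-fold serially diluted compound and 10 μM Fluor de Lys-SIRT1 substrate for 60 min at 30° C. Developer II was then added for 30 min, fluorescence read at Ex 360/Em 460, and IC50 values were calculated.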
# T1 sequence (Q13547 whole entry): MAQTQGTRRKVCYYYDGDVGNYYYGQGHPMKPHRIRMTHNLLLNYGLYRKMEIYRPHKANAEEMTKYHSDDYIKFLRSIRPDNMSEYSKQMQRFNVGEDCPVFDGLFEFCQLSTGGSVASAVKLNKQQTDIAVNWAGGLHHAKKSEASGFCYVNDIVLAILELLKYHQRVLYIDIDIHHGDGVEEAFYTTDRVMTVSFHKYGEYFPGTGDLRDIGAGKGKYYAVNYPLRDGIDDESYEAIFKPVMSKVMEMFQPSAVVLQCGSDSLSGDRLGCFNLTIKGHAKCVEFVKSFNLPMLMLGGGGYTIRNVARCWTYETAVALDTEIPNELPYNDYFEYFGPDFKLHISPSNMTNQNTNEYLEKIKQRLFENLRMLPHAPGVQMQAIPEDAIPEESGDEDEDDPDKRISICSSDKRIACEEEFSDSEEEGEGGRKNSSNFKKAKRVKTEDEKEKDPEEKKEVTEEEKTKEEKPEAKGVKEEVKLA
IC50 (human recombinant HDAC1),HDAC6 selectivity (fold) (human recombinant HDAC6),IC50 (human recombinant HDAC6),Compound
2.27 µM,63 fold,36 nM,"CS(=O)(=O)N(Cc1ccc(-c2nnc(C(F)F)o2)c(F)c1)c1ccccc1 [Compound 11184, N-(4-(5-(difluoromethyl)-1,3,4-oxadiazol-2-yl)-3-fluorobenzyl)-N-phenylmethanesulfonamide]"
19.5 µM,151 fold,129 nM,"CS(=O)(=O)N(Cc1ccc(-c2nnc(C(F)(F)F)o2)cc1F)c1cccc(Cl)c1 [Compound 11190, N-(3-chlorophenyl)-N-(2-fluoro-4-(5-(trifluoromethyl)-1,3,4-oxadiazol-2-yl)benzyl)methanesulfonamide]"
7 µM,108 fold,65 nM,"COc1ccc(N(Cc2ccc(-c3nnc(C(F)(F)F)o3)cc2F)S(C)(=O)=O)cc1 [Compound 11192, N-(2-fluoro-4-(5-(trifluoromethyl)-1,3,4-oxadiazol-2-yl)benzyl)-N-(4-methoxyphenyl)methanesulfonamide]"
28 µM,368 fold,76 nM,"CS(=O)(=O)N(Cc1ccc(-c2nnc(C(F)(F)F)o2)cn1)c1cccc(F)c1 [Compound 11216, N-(3-fluorophenyl)-N-((5-(5-(trifluoromethyl)-1,3,4-oxadiazol-2-yl)pyridin-2-yl)methyl)methanesulfonamide]"
28.1 µM,453 fold,62 nM,"O=S(=O)(C1CCOCC1)N(Cc1ccc(-c2nnc(C(F)(F)F)o2)cn1)c1ccccc1 [Compound 11431, N-phenyl-N-((5-(5-(trifluoromethyl)-1,3,4-oxadiazol-2-yl)pyridin-2-yl)methyl)tetrahydro-2H-pyran-4-sulfonamide]"
27.2 µM,3018 fold,9 nM,"CN1CC(N2CCC(S(=O)(=O)N(Cc3ccc(-c4nnc(C(F)F)o4)cc3F)c3ccc(F)c(Cl)c3)CC2)C1 [Compound 11451, N-(3-chloro-4-fluorophenyl)-N-(4-(5-(difluoromethyl)-1,3,4-oxadiazol-2-yl)-2-fluorobenzyl)-1-(1-methylazetidin-3-yl)piperidine-4-sulfonamide]"
21.8 µM,2727 fold,8 nM,"O=S1(=O)CCC(S(=O)(=O)N(Cc2ccc(-c3nnc(C(F)F)o3)cn2)c2ccc(F)c(Cl)c2)CC1 [Compound 11497, N-(3-chloro-4-fluorophenyl)-N-((5-(5-(difluoromethyl)-1,3,4-oxadiazol-2-yl)pyridin-2-yl)methyl)tetrahydro-2H-thiopyran-4-sulfonamide 1,1-dioxide]"

# More lines, now with the values behind:
Compound,IC50 (human recombinant HDAC1),HDAC6 selectivity (fold) (human recombinant HDAC6),IC50 (human recombinant HDAC6)
"COc1cccc(N(Cc2ccc(-c3nnc(C(F)(F)F)o3)cc2F)S(C)(=O)=O)c1 [Compound 11179, N-(2-fluoro-4-(5-(trifluoromethyl)-1,3,4-oxadiazol-2-yl)benzyl)-N-(3-methoxyphenyl)methanesulfonamide]",7.81 µM,211 fold,37 nM
"CS(=O)(=O)N(Cc1ccc(-c2nnc(C(F)(F)F)o2)cc1F)c1cccc(Br)c1 [Compound 11196, N-(3-bromophenyl)-N-(2-fluoro-4-(5-(trifluoromethyl)-1,3,4-oxadiazol-2-yl)benzyl)methanesulfonamide]",28.7 µM,441 fold,65 nM
"CS(=O)(=O)N(Cc1ccc(-c2nnc(C(F)(F)F)o2)cc1F)c1ccc(C(F)(F)F)cc1 [Compound 11220, N-(2-fluoro-4-(5-(trifluoromethyl)-1,3,4-oxadiazol-2-yl)benzyl)-N-(4-(trifluoromethyl)phenyl)methanesulfonamide]",26.2 µM,845 fold,31 nM
"CS(=O)(=O)N(Cc1ccc(-c2nnc(C(F)(F)F)o2)cc1F)c1ccc2c(c1)OCO2 [Compound 11226, N-(benzo[d][1,3]dioxol-5-yl)-N-(2-fluoro-4-(5-(trifluoromethyl)-1,3,4-oxadiazol-2-yl)benzyl)methanesulfonamide]",11.6 µM,297 fold,39 nM
"CCS(=O)(=O)N(Cc1ccc(-c2nnc(C(F)(F)F)o2)cn1)c1ccc(F)c(Cl)c1 [Compound 11429, N-(3-chloro-4-fluorophenyl)-N-((5-(5-(trifluoromethyl)-1,3,4-oxadiazol-2-yl)pyridin-2-yl)methyl)ethanesulfonamide]",18.7 µM,288 fold,65 nM
"CCS(=O)(=O)N(Cc1ccc(-c2nnc(C(F)(F)F)o2)cn1)c1ccccc1 [Compound 11430, N-phenyl-N-((5-(5-(trifluoromethyl)-1,3,4-oxadiazol-2-yl)pyridin-2-yl)methyl)ethanesulfonamide]",22.2 µM,529 fold,42 nM
"CS(=O)(=O)N(Cc1ccc(-c2nnc(C(F)(F)F)o2)cn1)c1ccc(F)c(Cl)c1 [Compound 11432, N-(3-chloro-4-fluorophenyl)-N-((5-(5-(trifluoromethyl)-1,3,4-oxadiazol-2-yl)pyridin-2-yl)methyl)methanesulfonamide]",16.5 µM,271 fold,61 nM
"O=C(CO)N1CC(N2CCC(S(=O)(=O)N(Cc3ccc(-c4nnc(C(F)F)o4)cc3F)c3ccc(F)c(Cl)c3)CC2)C1 [Compound 11452, N-(3-chloro-4-fluorophenyl)-N-(4-(5-(difluoromethyl)-1,3,4-oxadiazol-2-yl)-2-fluorobenzyl)-1-(1-(2-hydroxyacetyl)azetidin-3-yl)piperidine-4-sulfonamide]",27.5 µM,3439 fold,8 nM
"CCS(=O)(=O)N(Cc1ccc(-c2nnc(C(F)F)o2)cn1)c1ccc(C)c(F)c1 [Compound 11460, N-((5-(5-(difluoromethyl)-1,3,4-oxadiazol-2-yl)pyridin-2-yl)methyl)-N-(3-fluoro-4-methylphenyl)ethanesulfonamide]",27.3 µM,2727 fold,10 nM
"CCS(=O)(=O)N(Cc1ccc(-c2nnc(C(F)F)o2)cn1)c1ccc(F)c(C)c1 [Compound 11461, N-((5-(5-(difluoromethyl)-1,3,4-oxadiazol-2-yl)pyridin-2-yl)methyl)-N-(4-fluoro-3-methylphenyl)ethanesulfonamide]",27.7 µM,2769 fold,10 nM
"CCS(=O)(=O)N(Cc1ccc(-c2nnc(C(F)F)o2)cn1)c1ccc(F)c(F)c1 [Compound 11462, N-((5-(5-(difluoromethyl)-1,3,4-oxadiazol-2-yl)pyridin-2-yl)methyl)-N-(3,4-difluorophenyl)ethanesulfonamide]",21.1 µM,2635 fold,8 nM
"CCS(=O)(=O)N(Cc1ccc(-c2nnc(C(F)F)o2)cn1)c1cc(F)cc(F)c1 [Compound 11463, N-((5-(5-(difluoromethyl)-1,3,4-oxadiazol-2-yl)pyridin-2-yl)methyl)-N-(3,5-difluorophenyl)ethanesulfonamide]",22.3 µM,2789 fold,8 nM
